{"source": "patent US20130165520A1", "about": "“Hybrid Molecule Having Mixed Retinoic Acid Receptor Agonism and Histone Deacetylase Inhibitory Properties” (priority 2010, published 2013)", "key": {"MCF7": {"test_system": "MCF7", "assay": "cells", "conditions": "Homo sapiens, MCF7, 48 h"}, "SK-MEL-5": {"test_system": "SK-MEL-5", "conditions": "SK-MEL-5 (Melanoma); 48 h"}, "HOP-92 [1]": {"test_system": "HOP-92", "assay": "cells", "conditions": "Homo sapiens, HOP-92, 48 h"}, "SR": {"test_system": "SR", "assay": "cells", "conditions": "Homo sapiens, 48 h"}, "SK-MEL-2": {"test_system": "SK-MEL-2", "assay": "cells", "conditions": "Homo sapiens, SK-MEL-2, 48 h"}, "HCC-2998": {"test_system": "HCC-2998", "conditions": "HCC-2998 (Colon); 48 h"}, "LOX IMVI": {"test_system": "LOX IMVI", "assay": "cells", "conditions": "Homo sapiens, 48 h"}, "NCI-H522": {"test_system": "NCI-H522", "conditions": "NCI-H522 (Non-Small cell lung cancer); 48 h"}, "[2]": {"test_system": "RAR target genes in MCF-7 cell line", "assay": "RT-qPCR analysis of RAR target genes", "type": "cell-based", "excerpt": "The agonist activity of 3 through its effects on RAR target genes was subsequently analyzed (FIG. 3)."}, "MDA-MB-435": {"test_system": "MDA-MB-435", "assay": "cells", "conditions": "Homo sapiens, MDA-MB-435, 48 h"}, "OVCAR-8": {"test_system": "OVCAR-8", "assay": "cells", "conditions": "Homo sapiens, OVCAR-8, 48 h"}, "PC-3": {"test_system": "PC-3", "conditions": "PC-3 (Prostate); 48 h"}, "BT-549": {"test_system": "BT-549", "conditions": "BT-549 (Breast); 48 h"}, "SNB-19": {"test_system": "SNB-19", "assay": "cells", "conditions": "Homo sapiens, SNB-19, 48 h"}, "786-0 [3]": {"test_system": "786-0", "assay": "cells", "conditions": "Homo sapiens, 786-0, 48 h"}, "SNB-75": {"test_system": "SNB-75", "conditions": "SNB-75 (CNS); 48 h"}, "HOP-92 [4]": {"test_system": "HOP-92", "conditions": "HOP-92 (Non-Small cell lung cancer); 48 h"}, "COLO205": {"test_system": "COLO205", "assay": "cells", "conditions": "Homo sapiens, COLO 205, 48 h"}, "UACC-62": {"test_system": "UACC-62", "assay": "cells", "conditions": "Homo sapiens, UACC-62, 48 h"}, "786-0 [5]": {"test_system": "786-0", "conditions": "786-0 (Renal); 48 h"}, "BT-20": {"test_system": "BT-20", "assay": "Cell growth measurement", "type": "cell-based", "conditions": "BT-20 (ER-negative, HER2-negative, RA-insensitive)"}, "NCI/ADR-RES": {"test_system": "NCI/ADR-RES", "assay": "cells", "conditions": "Homo sapiens, 48 h"}}}
{"smiles": "CC1(C)CCC(C)(C)c2cc(-c3ccc4cc(C(=O)NO)ccc4c3)ccc21", "note": "[hybrid 3]", "values": [{"measurement": "GI50", "setting": "MCF7", "result": 0.47, "unit": "µM"}, {"measurement": "CC50", "setting": "MCF7; read-out: LC50", "result": 4.66, "unit": "µM"}, {"measurement": "TGI", "setting": "SK-MEL-5", "result": 2.31, "unit": "µM"}, {"measurement": "GI50", "setting": "HOP-92 [1]", "result": 1.93, "unit": "µM"}, {"measurement": "CC50", "setting": "HOP-92 [1]; read-out: LC50", "result": 27.2, "unit": "µM"}, {"measurement": "GI50", "setting": "SR", "result": 0.335, "unit": "µM"}, {"measurement": "CC50", "setting": "SR; read-out: LC50", "result": 7.64, "unit": "µM"}, {"measurement": "GI50", "setting": "SK-MEL-2", "result": 2.42, "unit": "µM"}, {"measurement": "CC50", "setting": "SK-MEL-2; read-out: LC50", "result": 33.6, "unit": "µM"}, {"measurement": "TGI", "setting": "HCC-2998", "result": 2.51, "unit": "µM"}, {"measurement": "GI50", "setting": "LOX IMVI", "result": 0.372, "unit": "µM"}, {"measurement": "CC50", "setting": "LOX IMVI; read-out: LC50", "result": 4.19, "unit": "µM"}, {"measurement": "TGI", "setting": "NCI-H522", "result": 3.59, "unit": "µM"}, {"measurement": "induction of RAR target genes (RT-qPCR)", "setting": "[2]", "result": "clear induction of RARB2 and DHRS3"}, {"measurement": "GI50", "setting": "MDA-MB-435", "result": 0.879, "unit": "µM"}, {"measurement": "CC50", "setting": "MDA-MB-435; read-out: LC50", "result": 6.8, "unit": "µM"}, {"measurement": "GI50", "setting": "OVCAR-8", "result": 0.459, "unit": "µM"}, {"measurement": "CC50", "setting": "OVCAR-8; read-out: LC50", "result": 5.12, "unit": "µM"}, {"measurement": "TGI", "setting": "PC-3", "result": 4.25, "unit": "µM"}, {"measurement": "TGI", "setting": "BT-549", "result": 4.81, "unit": "µM"}, {"measurement": "GI50", "setting": "SNB-19", "result": 1.09, "unit": "µM"}, {"measurement": "CC50", "setting": "SNB-19; read-out: LC50", "result": 5.09, "unit": "µM"}, {"measurement": "GI50", "setting": "786-0 [3]", "result": 1.1, "unit": "µM"}, {"measurement": "CC50", "setting": "786-0 [3]; read-out: LC50", "result": 5.12, "unit": "µM"}, {"measurement": "TGI", "setting": "SNB-75", "result": 6.1, "unit": "µM"}, {"measurement": "TGI", "setting": "HOP-92 [4]", "result": 6.35, "unit": "µM"}, {"measurement": "GI50", "setting": "COLO205", "result": 0.797, "unit": "µM"}, {"measurement": "CC50", "setting": "COLO205; read-out: LC50", "result": 6.02, "unit": "µM"}, {"measurement": "GI50", "setting": "UACC-62", "result": 0.512, "unit": "µM"}, {"measurement": "CC50", "setting": "UACC-62; read-out: LC50", "result": 5.17, "unit": "µM"}, {"measurement": "TGI", "setting": "786-0 [5]", "result": 2.37, "unit": "µM"}, {"measurement": "effect on cell growth", "setting": "BT-20", "result": "active"}, {"measurement": "GI50", "setting": "NCI/ADR-RES", "result": 0.502, "unit": "µM"}, {"measurement": "CC50", "setting": "NCI/ADR-RES; read-out: LC50", "result": 5.34, "unit": "µM"}]}
